Results on 30 compounds are retold here after patent US11498921B1, “Pyrimidine or pyridine compounds, preparation method therefor and pharmaceutical uses thereof” (INVENTISBIO CO., LTD., priority 2014, dated 2022).

The test system of assay [1] is LoVo cells (wild-type EGFR human colon adenocarcinoma). Kind of assay: Cell growth inhibition (Cell Titer-Glo), LoVo. In kind it is cell-based. The note with it: 72 hours drug treatment, 3 nM to 10 μM. The method, then: (§1) Experiment of Cell Growth Inhibition
(§2) The LoVo cell line is a wild-type EGFR human colon adenocarcinoma cell, and is grown in F-12K medium (GIBCO) containing 10% FBS. NCI-H2073 cell line is a wild-type EGFR human non-small cell lung cancer cell and grown in ACL-4 medium containing 10% FBS. The growth rate of NCI-H1975, LoVo and NCI-H2073 cells was detected by Cell Titer-Glo luminescence activity assay (Promega #G7572).
(§3) Briefly, trypsin was used for digesting cells in the logarithmic growth phase. 96-well plates were seeded with 50,000 Lovo or NCI-H2073 cells, 2500-3000 NCI-H1975 cells per well and provided with blank control wells containing only nutrient solution without inoculated cell, and the plates were incubated in a humidified incubator with 5% CO2 at 37° C. […] The concentration of test drug in NCI-H1975 cells was from 0.03 nM to 100 nM, and that in LoVo and NCI-H2073 cells was from 3 nM to 10 μM. The cell culture medium containing the different compounds was then added to a 96-well cell plate in which one cell control well comprising cell culture medium only containing DMSO was provided. After a drug treatment for 72 hours, the cell plates were removed from the incubator and allowed to stand at room temperature for 30 minutes. Next, Cell Titer-Glo reagent was added to the wells and the 96-well cell plate was shaken at room temperature for 10 minutes to induce cell lysis. The 96-well cell plate was placed on the bench for 2 minutes to stabilize the luminescence signal. Finally, the 96-well cell plate was placed in an EnVision Multi-labeled Microplate Reader (PerkinElmer), and the signal was read with an integral time of 0.5 seconds.
(§4) Formula: Percentage of cell growth inhibition %=(maximum signal−compound signal)/(maximum signal−minimum signal)*100%
(§5) The maximal signal was obtained from the cell control well which were treated with the DMSO solution having no any compound;
(§6) The compound signal was obtained from the drug-treated cell wells to which the compound was added;
(§7) The minimum signal was obtained from a blank control well to which no cells and only nutrient solution was added.
On the technique in general: ATP-based viability assays read luminescence as a measure of living cells.

Assay [2] concerns NCI-H1975 cells (T790M and L858R EGFR mutations). The assay is described as follows: Cell growth inhibition (Cell Titer-Glo), NCI-H1975. The note with it: Homo sapiens, 72 hours drug treatment, 0.03 nM to 100 nM. In kind it is cell-based. On the procedure: as §1, §2, §3, §4, §5, §6, §7

Each structure is given as a SMILES string. Counter-ions that a name gives are not always drawn. Where only a bound is given, the exact number is not on record here.

Take `C=CC(=O)Nc1cc(Nc2nccc(-c3cn(C)c4ccccc34)n2)c(OC)cc1OCCOC` [32. (MsOH)]: the figures for the IC50 in assay [1] and in assay [2] were > 10000 nM and > 100 nM, respectively.
On to `C=CS(=O)(=O)Nc1cc(Nc2nccc(-c3cn(C)c4ccccc34)n2)c(OC)cc1N(C)CCN(C)C` [45. (HCl)n], for which the IC50 (in general, the concentration at which inhibition is half-maximal) was 1090 nM in assay [1] and > 100 nM in assay [2].
For `C=CC(=O)Nc1cc(Nc2nccc(-c3cn(C)c4ccccc34)n2)c(OC)cc1N(C)CCOC` [6. (HCl)n] the same measures were 4980 nM and > 100 nM.
The corresponding values for `C=CC(=O)Nc1cc(Nc2nccc(-c3cn(C)c4ccccc34)n2)c(OC)cc1N1CCC(N2CCN(C)CC2)C1` (stereo not drawn) [20. (MsOH)4] are 954 nM and > 100 nM.
The corresponding values for `C=CC(=O)Nc1cc(Nc2cc(-c3cn(C)c4ccccc34)ccn2)c(OC)cc1N(C)CCN(C)C` [43. (HCl)n] are 2170 nM and 18.1 nM.
Turning to `C=CC(=O)Nc1cc(Nc2nccc(-c3cn(C)c4ccccc34)n2)c(OC)cc1N(C)CCN1CCCC1` [12. (MsOH)2], the IC50 in assay [1] came out at 1720 nM; in assay [2], 35.2 nM.
For `C=CC(=O)Nc1cc(Nc2nccc(-c3cn(C)c4ccccc34)n2)c(OC)cc1N1CCC(N2CCOCC2)C1` (stereo not drawn) [26. (MsOH)2] the same measures were 5130 nM and > 100 nM.
For `C=CC(=O)Nc1cc(Nc2nccc(-c3cn(C)c4ccccc34)n2)c(OC)cc1N(C)CCN1CCC1` [11. (MsOH)2] the same measures were 1270 nM and 35.4 nM.
For `C=CC(=O)Nc1cc(Nc2nccc(-c3cn(C)c4ccccc34)n2)c(OC)cc1N1CCC(N2CCC2)C1` (stereo not drawn) [18. (MsOH)3] the same measures were 520 nM and 43.6 nM.
For the compound `C=CC(=O)Nc1cc(Nc2nccc(-c3cn(C)c4ccccc34)n2)c(OC)cc1N1CCC(N2CCCC2)C1` (stereo not drawn) [19. MsOH], the IC50 stood at 955 nM in assay [1] and 48.5 nM in assay [2].
The corresponding values for `C=CC(=O)Nc1cc(Nc2nccc(N3CCCc4ccccc43)n2)c(OC)cc1N(C)CCN(C)C` [35. (MsOH)3] are 912 nM and 48.4 nM.
The corresponding values for `C=CC(=O)Nc1cc(Nc2nccc(-c3cn(C)c4ccccc34)n2)c(OC)cc1N1CCC(N2CCCC2)CC1` [15. (MsOH)2] are 333 nM and > 100 nM.
The corresponding values for `C=CC(=O)Nc1cc(Nc2nccc(-c3cn(C)c4ccccc34)n2)c(OC)cc1N1CC(N2CCN(C)CC2)C1` [24. (MsOH)3] are 2580 nM and > 100 nM.
Take `C=CC(=O)Nc1cc(Nc2nccc(-c3cn(C)c4ccccc34)n2)c(OC)cc1N1CC(N2CCCC2)C1` [Example 23]: the IC50 in assay [1] amounted to 2280 nM; in assay [2], 90.8 nM.
The corresponding values for `C=CC(=O)Nc1cc(Nc2nccc(-c3cn(C)c4ccccc34)n2)c(OC)cc1N1CC(OC)C1` [21. (MsOH)2] are > 10000 nM and > 100 nM.
With `C=CC(=O)Nc1cc(Nc2nccc(-c3cn(C)c4ccccc34)n2)c(OC)cc1N1CCC(N(C)C)CC1` [13. (MsOH)2], the figures for the IC50 in assay [1] and in assay [2] were 444 nM and > 100 nM, respectively.
Consider `C=CC(=O)Nc1cc(Nc2nccc(-c3cn(C)c4ccccc34)n2)c(OC)cc1OCCN1CCN(C)CC1` [31. (MsOH)3], for which the IC50 in assay [1] was 846 nM; in assay [2], > 100 nM.
For `C=CC(=O)Nc1cc(Nc2nccc(-c3cn(C)c4ccccc34)n2)c(OC)cc1N1CCCC(N(C)C)C1` (stereo not drawn) [34. (MsOH)3] the same measures were 446 nM and 39.9 nM.
With `C=CC(=O)Nc1cc(Nc2nccc(-c3cn(C)c4ccccc34)n2)c(OC)cc1N(C)CCCN(C)C` [47. (MsOH)2], the IC50 in assay [1] is 1620 nM; in assay [2], 134 nM.
The corresponding values for `C=CC(=O)Nc1cc(Nc2nccc(-c3cn(C)c4ccccc34)n2)c(OC)cc1N1CCC(OC)C1` (stereo not drawn) [17. (MsOH)2] are > 10000 nM and > 100 nM.
For `C=CC(=O)Nc1cc(Nc2nccc(-n3nc(C)c4ccccc43)n2)c(OC)cc1N(C)CCN(C)C` [55. (HCl)n] the same measures were 3230 nM and > 100 nM.
In the case of `C=CC(=O)Nc1cc(Nc2nccc(-c3cn(C)c4ccccc34)n2)c(OC)cc1OCCN1CCOCC1` [30. (MsOH)2], the IC50 was 2550 nM in assay [1] and > 100 nM in assay [2].
For `C=CC(=O)Nc1cc(Nc2nccc(-c3cn(C)c4ccccc34)n2)c(OC)cc1N1CC(N2CCOCC2)C1` [25. (MsOH)2] the same measures were 5250 nM and > 100 nM.
For the compound `C=CC(=O)Nc1cc(Nc2nccc(-c3cn(C)c4ccccc34)n2)c(OC)cc1N1CCC(N2CCC2)CC1` [14. (MsOH)2], the IC50 was 481 nM in assay [1] and > 100 nM in assay [2].
The corresponding values for `C=CC(=O)Nc1cc(Nc2nccc(-c3cn(C)c4ccccc34)n2)c(OC)cc1N1CCC(N2CCOCC2)CC1` [27. (MsOH)3] are 1810 nM and 84 nM.
For `C=CC(=O)Nc1cc(Nc2nccc(-c3cn(C)c4ccccc34)n2)c(OC)cc1N(CCOC)CCOC` [33. HCl] the same measures were 1430 nM and > 100 nM.
Take `C=CC(=O)Nc1cc(Nc2nccc(-c3cn(C)c4ccccc34)n2)c(OC)cc1N(C)CCS(C)(=O)=O` [10. (MsOH)3]: the values for the IC50 in assay [1] and in assay [2] were 3020 nM and > 100 nM, respectively.
As for `C=CC(=O)Nc1cc(Nc2nccc(-c3cn(C)c4ccccc34)n2)c(OC)cc1N(C)CCN(C)CCOC` [54. (HCl)n], the IC50 in assay [1] was 738 nM; in assay [2], 38.2 nM.
Turning to `C=CC(=O)Nc1cc(Nc2nccc(-c3cn(C)c4ccccc34)n2)c(OC)cc1OC1CN(C)C1` [Example 28], the IC50 in assay [1] was 538 nM; in assay [2] it was > 100 nM.
For `C=CS(=O)(=O)Nc1cc(Nc2nccc(-c3cn(C)c4ccccc34)n2)c(OC)cc1N(C)CCN1CCCC1` [46. (MsOH)2] the same measures were 1170 nM and 155 nM.
